In article PMC10004634 (PLOS ONE, 2023):
“Also recorded” adds a separate entry of the source.

Tested on: TMD8 cells
Assay: RT-qPCR of IRF4, BCL6, MYC mRNA
Type: cell-based, human
Conditions: 24 h, tirabrutinib 1 μM, BMS-345541 10 μM, MK-2206 1 μM, refametinib 0.1 μM
Procedure: After culturing, total RNA was isolated from cells using the RNeasy Plus Mini Kit (Qiagen), then cDNA was prepared from total RNA using the SuperScript VILO cDNA Synthesis Kit (Invitrogen) following the kit instructions. For quantification of each mRNA expression level, PCR was performed using TaqMan Fast Universal PCR Master Mix (Thermo Fisher Scientific) under the following conditions with the AriaMx Real Time PCR System (Agilent Technologies): 95°C for 3 min, followed by 40 cycles at 95°C for 5 s and 60°C for 20 s with continuous fluorescence measurement. All PCRs were performed in triplicate, and the mRNA expression of GAPDH was used as an internal control. The results (fold changes of the threshold cycle [Ct] relative to the control group) were obtained using the 2^−ΔΔCt method. The TaqMan probes for IRF4 (Assay ID: Hs00180031_m1), BCL6 (Assay ID: Hs00153368_m1), MYC (Assay ID: Hs00153408_m1), and GAPDH (Assay ID: Hs02786624_g1) were purchased from Thermo Fisher Scientific. Statistical tests were performed with the SAS 9.4 (SAS Institute Japan Ltd., Tokyo, Japan) TS1M4-based EXSUS system version 10.1.3 (CAC Corporation, Tokyo, Japan). The t-test or Dunnett test was used to compare mRNA expression in the DMSO- and compound-treated groups. The statistical tests were two-sided with a 5% significance level.

| SMILES | IRF4 mRNA expression | MYC mRNA expression |
| --- | --- | --- |
| Cc1ccc2nc(NCCN)c3ncc(C)n3c2c1 [BMS-345541] | significant downregulation; also recorded: strongly inhibited | significant downregulation; also recorded: strong inhibition |
| NC1(c2ccc(-c3nc4ccn5c(=O)[nH]nc5c4cc3-c3ccccc3)cc2)CCC1 [MK-2206] | did not downregulate | did not downregulate |
| COc1cc(F)c(F)c(Nc2ccc(I)cc2F)c1NS(=O)(=O)C1(C[C@H](O)CO)CC1 [refametinib] | – | tended to downregulate; also recorded: partially downregulated |
